Tests used:
Sarcoma 180 tumor = experiment: Therapeutic Effect against Sarcoma 180 Tumor; type: in vivo, male ddY-strain mice; conditions: single intravenous, average tumor volume treated/control, seven days after implantation
Experimental: Therapeutic Effect against Sarcoma 180 Tumor
Five male ddY-strain mice each having a weight of 18 to 20 g were used for each group as test animals, and 5×10^5 Sarcoma 180 tumor cells were implanted subcutaneously into the animals at the axilla. One day after the implantation, 0.2 ml of physiological saline containing Compound (I) at the concentration indicated in Table 3 was intravenously administered to each mouse. T/C [T: average tumor volume (mm^3) of the group treated with the test compound, C: that of the control group which received an intravenous administration of 0.2 ml of physiological saline] was determined seven days after the implantation.

ddY-strain male mice = experiment: Acute Toxicity Test; type: in vivo; conditions: intraperitoneal; mortality observed for 14 days after the administration
Experimental: A test compound was intraperitoneally administered to ddY-strain male mice each weighing 20±1 g. MLD (the minimum lethal dose) was determined by observing the mortality for 14 days after the administration.

various bacteria = conditions: against various bacteria; cited from earlier work
melanoma B-16 = conditions: against melanoma B-16; cited from earlier work

| SMILES | Acute Toxicity (MLD), minimum lethal dose (ddY-strain male mice) [mg/kg] | antibacterial activity (various bacteria) | anti-tumor activity (melanoma B-16) | other results |
| --- | --- | --- | --- | --- |
| COC(=O)C1(C)Nc2c(OC(=O)N3CCN(CCN)CC3)cc3c(c2C1=O)CC(Br)CN3C(=O)c1cc2cc(OC)c(OC)c(OC)c2[nH]1 (stereo not shown) [Compound 4] | 2.0 | – | – | T/C (Sarcoma 180 tumor; dose 1.0 mg/kg, 1 mg/kg): 0.047 |
| COC(=O)C1(C)NC2=C(C1=O)C13CC1CN(C(=O)c1cc4cc(OC)c(OC)c(OC)c4[nH]1)C3=CC2=O (stereo not shown) [DC-88A] | – | shows an antibacterial activity against a variety of bacteria | exhibits an anti-tumor activity against melanoma B-16 | – |
| COC(=O)C1(C)Nc2c(OC(=O)N3CCN(C)CC3)cc3c(c2C1=O)CC(Br)CN3C(=O)c1cc2cc(OC)c(OC)c(OC)c2[nH]1 (stereo not shown) [Compound 2] | 5.2 | – | – | T/C (Sarcoma 180 tumor; dose 1.0 mg/kg): 0.19; T/C (Sarcoma 180 tumor; dose 2.0 mg/kg): 0.083 |
| COc1cc2cc(C(=O)N3CC(Br)Cc4c3cc(O[Si](C)(C)C(C)(C)C)c3[nH]c(C)cc43)[nH]c2c(OC)c1OC (stereo not shown) [Compound 8] | 8.0 | – | – | T/C (Sarcoma 180 tumor; dose 2.0 mg/kg): 0.19 |
| COC(=O)C1(C)Nc2c(OC(=O)N3CCC(N4CCCCC4)CC3)cc3c(c2C1=O)CC(Br)CN3C(=O)c1cc2cc(OC)c(OC)c(OC)c2[nH]1 (stereo not shown) [Compound 6] | 4.0 | – | – | – |
| COC(=O)c1c(C)[nH]c2c(O[Si](C)(C)C(C)(C)C)cc3c(c12)CC(Cl)CN3C(=O)c1cc2cc(OC)c(OC)c(OC)c2[nH]1 (stereo not shown) [Compound 10] | > 8.0 | – | – | – |
| COC(=O)c1c(C)[nH]c2c(O[Si](C)(C)C(C)(C)C)cc3c(c12)CC(Br)CN3C(=O)c1cc2cc(OC)c(OC)c(OC)c2[nH]1 (stereo not shown) [Compound 7] | 4.0 | – | – | T/C (Sarcoma 180 tumor; dose 1.0 mg/kg): 0.13; T/C (Sarcoma 180 tumor; dose 2.0 mg/kg): 0.025 |
| COC(=O)C1(C)Nc2c(OC(=O)N3CCN(C)CC3)cc3c(c2C1=O)CC(Cl)CN3C(=O)c1cc2cc(OC)c(OC)c(OC)c2[nH]1 (stereo not shown) [Compound 14] | > 16 | – | – | – |
| COc1cc2cc(C(=O)N3CC(Br)Cc4c3cc(OC(=O)N(C)C)c3[nH]c(C)cc43)[nH]c2c(OC)c1OC (stereo not shown) [Compound 9] | 0.50 | – | – | T/C (Sarcoma 180 tumor; dose 0.25 mg/kg): 0.15; T/C (Sarcoma 180 tumor; dose 0.50 mg/kg): 0.068 |
| COC(=O)C1(C)Nc2c(OC(=O)N3CCC(N4CCCCC4)CC3)cc3c(c2C1=O)CC(Br)CN3C(=O)c1cc2cc(OC)c(OC)c(OC)c2[nH]1 (stereo not shown) [Compound 5] | 2.0 | – | – | – |
| COC(=O)C1(C)Nc2c(OC(=O)N3CCN(CCN)CC3)cc3c(c2C1=O)CC(Br)CN3C(=O)c1cc2cc(OC)c(OC)c(OC)c2[nH]1 (stereo not shown) [Compound 3] | 2.0 | – | – | T/C (Sarcoma 180 tumor; dose 0.50 mg/kg): 0.25; T/C (Sarcoma 180 tumor; dose 1.0 mg/kg, 1 mg/kg): 0.094 |
| COC(=O)C1(C)Nc2c(O)cc3c(c2C1=O)CC(Br)CN3C(=O)c1cc2cc(OC)c(OC)c(OC)c2[nH]1 (stereo not shown) [DC-89B1] | – | exhibit an antibacterial activity against various bacteria | show an anti-tumor activity against melanoma B-16 | – |
| COc1cc2cc(C(=O)N3CC(Cl)Cc4c3cc(O[Si](C)(C)C(C)(C)C)c3[nH]c(C)cc43)[nH]c2c(OC)c1OC (stereo not shown) [Compound 11] | > 8.0 | – | – | – |
| COC(=O)C1(C)Nc2c(O)cc3c(c2C1=O)CC(Cl)CN3C(=O)c1cc2cc(OC)c(OC)c(OC)c2[nH]1 (stereo not shown) [DC-89A1] | – | exhibit an antibacterial activity against various bacteria | show an anti-tumor activity against melanoma B-16 | – |
| COC(=O)C1(C)Nc2c(O)cc3c(c2C1=O)C(CBr)CN3C(=O)c1cc2cc(OC)c(OC)c(OC)c2[nH]1 (stereo not shown) [DC-89B2] | – | exhibit an antibacterial activity against various bacteria | show an anti-tumor activity against melanoma B-16 | – |
| COC(=O)C1(C)Nc2c(O)cc3c(c2C1=O)C(CCl)CN3C(=O)c1cc2cc(OC)c(OC)c(OC)c2[nH]1 (stereo not shown) [DC-89A2] | – | exhibit an antibacterial activity against various bacteria | show an anti-tumor activity against melanoma B-16 | – |
